How the values were obtained:
S. pyogenes 95/1 = assay: Invasion assay in HeLa cell monolayers (gentamicin protection, CFU of viable intracellular bacteria); assay type: cell-based, Streptococcus pyogenes; details: control 5 x 10^5; for Internalized bacteria (CFU/ml): absence of lactoferrin
Protocol: (§1) Streptococcus pyogenes strain 95/1 was cultured in Todd-Hewitt broth (Difco lab.). Blood agar was used for counting coloning forming units (C.F.U.). Staphylococcus aureus strain 94/3 was cultured in Brain Hearth Infusion (BHI). Mannitol Salt Agar was used for C.F.U. counts. HeLa S3 human epitelial cells (derived from epithelioid carcinoma of human cervix) were grown as monolayers at 37°C in Eagle's MEM containing 1.2 g/l of NaCo3, 2 mM glutamine, 100 U/ml penicillin, 0.1 mg/ml streptomycin and 10% heat inactivated foetal calf serum in 5% CO2 on 24-well tissue culture clusters (costar) by loading 1 ml of a solution of 1.5x10^5 cells/ml.
(§2) Semiconfluent monolayers of HeLa cells were infected with a bacterial suspension (at a multiplicity of infection of 100 exponentially grown bacteria per cell) deriving from a bacterial subculture after an incubation at 37°C for 120 min in the presence and absence of lactoferrin added at no cytotoxic nor antibacterial concentrations. After the bacterial infection (2 h at 37°C ), the monolayer was five-fold carefully washed with fosfate buffered saline (PBS) and then fresh medium (MEM, Seromed) containing 200 ug/ml of gentamicin was added. This antibiotic is well known for its impossibility to penetrate into the eukaryotic cells and to exert its bactericidal effect only towards the extracellular bacteria (free or adhered to the cells). Alter 2 h incubation period at 37°C in gentamicin, the infected cells were whashed three times with PBS and lysed by the addition of cold 0.1% Triton-X 100.
The cellular lysate was diluited with PBS and plated on selective agar medium in order to determine viable intracellular bacteria.

S. aureus = assay: as above; assay type: cell-based, Staphylococcus aureus; details: proteins 1 mg/ml; erythromycin 0.02 mg/ml where present; control 7 x 10^5
Protocol: as §1
as §2, with “Alter 2 h incubation period at 37°C in gentamicin, the infected cells were whashed three times with PBS and lysed by the addition of cold 0.1% Triton-X 100.” left out

| SMILES | Internalized bacteria (CFU/ml) (S. pyogenes 95/1; bacteria cultured with subinhibiting antibiotic 0.1 ug/ml) | Internalized bacteria (CFU/ml) (S. pyogenes 95/1; bacteria cultured with subinhibiting antibiotic 20 ug/ml) | Intracellular bacteria (CFU/ml S. pyogenes) (S. pyogenes 95/1; proteins 1 mg/ml, erythromycin 0.02 mg/ml where present) | Intracellular bacteria (CFU/ml S. aureus) (S. aureus) |
| --- | --- | --- | --- | --- |
| CC1(C)S[C@@H]2[C@H](NC(=O)[C@H](N)c3ccccc3)C(=O)N2[C@H]1C(=O)O [Ampicillin, ampicillin] | 2 x 10^5 CFU/ml |  |  |  |
| CC[C@H]1OC(=O)[C@H](C)[C@@H](O[C@H]2C[C@@](C)(OC)[C@@H](O)[C@H](C)O2)[C@H](C)[C@@H](O[C@@H]2O[C@H](C)C[C@H](N(C)C)[C@H]2O)[C@](C)(O)C[C@@H](C)C(=O)[C@H](C)[C@@H](O)[C@]1(C)O [Erythromycin, erythromycin] |  | 2 x 10^5 CFU/ml | 2 x 10^5 CFU/ml | 3 x 10^5 CFU/ml |

Source: patent EP0753308A2, “Use of lactoferrin for therapy of acute or recurrent infectious diseases by streptococcus pyogenes or other intracellular gram positive pathogen bacteria” (priority 1995, dated 1997)
